In patent publication US20150141435A1, “2-PYRIDONE ANTIMICROBIAL COMPOSITIONS” (Emergent BioSolutions, priority 2010, published 2015):
Where a name gives a salt, the structure may show the parent alone. Read-outs that look alike come from different tables or passages of the source.

Key:
Assay type in all cases: cell-based
P. aeruginosa ATCC 27853 = experiment: MIC, CLSI broth microdilution (Table 2); details: Pseudomonas aeruginosa
A. baumannii ATCC 19606 = experiment: MIC, CLSI broth microdilution (Table 2); details: Acinetobacter baumannii
[1] = tested on: Brucella abortus ATCC 23448; experiment: microbe, parasite or virus in culture; details: ATCC23448
Yersinia pestis C092 = experiment: microbe, parasite or virus in culture
[2] = tested on: Burkholderia pseudomallei ATCC 23343; experiment: microbe, parasite or virus in culture; details: ATCC23343
E. faecalis ATCC 29212 = experiment: MIC, CLSI broth microdilution (Table 1); details: Enterococcus faecalis
H. influenzae ATCC 49247 = experiment: MIC, CLSI broth microdilution (Table 2); details: Haemophilus influenzae
[3] = tested on: S. maltophilia ATCC 17677; experiment: MIC, CLSI broth microdilution (Table 2); details: Stenotrophomonas maltophilia
S. pneumonia ATCC 49619 = experiment: MIC, CLSI broth microdilution (Table 1); details: Streptococcus pneumoniae
E. faecium ATCC 19434 = experiment: MIC, CLSI broth microdilution (Table 1); details: Enterococcus faecium
[4] = tested on: S. aureus ATCC 43300 (MRSA, FQ-S); experiment: MIC, CLSI broth microdilution (Table 1); details: Staphylococcus aureus, read-out: MIC S. aureus ATCC 43300 (MRSA, FQ-S)
K. pneumoniae ATCC 33495 = experiment: MIC, CLSI broth microdilution (Table 2); details: Klebsiella pneumoniae
[5] = tested on: Francisella tularensis Schu S4; experiment: microbe, parasite or virus in culture; details: SCHUS4
S. aureus ATCC 25923 = experiment: MIC, CLSI broth microdilution (Table 1); details: Staphylococcus aureus
E. coli ATCC 25922 = experiment: MIC, CLSI broth microdilution (Table 2); details: Escherichia coli
[6] = tested on: S. aureus BAA-1720 (MRSA, FQ-R); experiment: MIC, CLSI broth microdilution (Table 1); details: Staphylococcus aureus, read-out: MIC S. aureus BAA-1720 (MRSA, FQ-R)
[7] = tested on: Bacillus anthracis Ames strain; experiment: microbe, parasite or virus in culture
[8] = tested on: Burkholderia mallei ATCC 23344; experiment: microbe, parasite or virus in culture; details: ATCC23344
[9] = ATCC27853, read-out: MIC P. aeruginosa ATCC 27853
[10] = ATCC19606, read-out: MIC A. baumannii B. ATCC 19606
[11] = ATCC29212, read-out: MIC E. faecalis ATCC 29212
[12] = ATCC49247, read-out: MIC H. influenzae ATCC 49247
[13] = ATCC17677, read-out: MIC S. maltophilia ATCC 17677
[14] = ATCC49619, read-out: MIC S. pneumonia ATCC 49619
[15] = ATCC19434, read-out: MIC E. faecium ATCC 19434
[16] = ATCC33495, read-out: MIC K. pneumoniae ATCC 33495
[17] = ATCC25923, read-out: MIC S. aureus ATCC 25923
[18] = ATCC25922, read-out: MIC E. coli ATCC 25922
[19] = ATCC27853, Gram negative, MHB, 37° C., 16-20 hours, read-out: MIC P. aeruginosa ATCC 27853
[20] = ATCC29212, Gram positive, MHB, 37° C., 16-20 hours, read-out: MIC E. faecalis ATCC 29212
[21] = ATCC49247, Gram negative, MHB, 37° C., 16-20 hours, read-out: MIC H. influenzae ATCC 49247
[22] = ATCC19434, Gram positive, MHB, 37° C., 16-20 hours, read-out: MIC E. faecium ATCC 19434
[23] = Gram positive, MHB, 37° C., 16-20 hours
[24] = ATCC25923, Gram positive, MHB, 37° C., 16-20 hours, read-out: MIC S. aureus ATCC 25923
[25] = ATCC25922, Gram negative, MHB, 37° C., 16-20 hours, read-out: MIC E. coli ATCC 25922
[26] = ATCC19606, Gram negative, MHB, 37° C., 16-20 hours, read-out: MIC A. baumannii B. ATCC 19606
[27] = ATCC17677, Gram negative, MHB, 37° C., 16-20 hours, read-out: MIC S. maltophilia ATCC 17677
[28] = ATCC49619, Gram positive, MHB, 37° C., 16-20 hours, read-out: MIC S. pneumonia ATCC 49619

SMILES | MIC (P. aeruginosa ATCC 27853; [9]) [µg/mL] | MIC (A. baumannii ATCC 19606; [10]) [µg/mL] | MIC [1] [µg/mL] | MIC (Yersinia pestis C092) [µg/mL] | MIC [2] [µg/mL] | MIC (E. faecalis ATCC 29212; [11]) [µg/mL] | MIC (H. influenzae ATCC 49247; [12]) [µg/mL] | MIC [3, 13] [µg/mL] | MIC (S. pneumonia ATCC 49619; [14]) [µg/mL] | MIC (E. faecium ATCC 19434; [15]) [µg/mL] | MIC [4] [µg/mL] | MIC (K. pneumoniae ATCC 33495; [16]) [µg/mL] | MIC [5] [µg/mL] | MIC (S. aureus ATCC 25923; [17]) [µg/mL] | MIC (E. coli ATCC 25922; [18]) [µg/mL] | MIC [6] [µg/mL] | MIC [7] [µg/mL] | MIC [8] [µg/mL] | MIC (P. aeruginosa ATCC 27853; [19]) [µg/mL] | MIC (E. faecalis ATCC 29212; [20]) [µg/mL] | also measured
Cc1c(-c2ccc3[nH]ncc3c2)ccn2c(=O)c(C(=O)O)cc(C3CC3)c12 [Example 23 K salt, 1-cyclopropyl-8-(1H-indazol-5-yl)-9-methyl-4-oxo-4H-quinolizine-3-carboxylic acid] | 2 | 0.125 | 0.016 | 0.016 to 0.031 | 0.063 | 0.008 | ≤ 0.004 | 0.064 | 0.064 | 0.25 | ≤ 0.004 | 0.125 | 0.016 | ≤ 0.004 | 0.032 | 0.125 | 0.004 | 0.063 |  |  | 
Cc1c(-c2ccc(F)c(N)c2)ccn2c(=O)c(C(=O)O)cc(C3CC3)c12 [Example 8 K salt, 8-(3-amino-4-fluoro-phenyl)-1-cyclopropyl-9-methyl-4-oxo-4H-quinolizine-3-carboxylic acid] |  | 0.064 to 0.125 | 0.063 | 0.031 | 0.125 |  |  | 0.125 | 0.125 |  |  | 0.125 | 0.031 |  |  |  | 0.008 | 0.25 | 2 | 0.032 | MIC (H. influenzae ATCC 49247; [21]): 0.064 µg/mL; MIC (E. faecium ATCC 19434; [22]): 0.5 µg/mL; MIC [4, 23]: 0.008 µg/mL; MIC (S. aureus ATCC 25923; [24]): 0.008 µg/mL; MIC (E. coli ATCC 25922; [25]): 0.032 to 0.064 µg/mL; MIC [6, 23]: 0.25 µg/mL
Cc1c(-c2ccc(N)nc2)ccn2c(=O)c(C(=O)O)cc(C3CC3)c12 [Example 21 K salt, 8-(6-amino-pyridin-3-yl)-1-cyclopropyl-9-methyl-4-oxo-4H-quinolizine-3-carboxylic acid] | 1 to 2 | 0.064 to 0.125 | 0.063 | 0.031 | 0.25 to 0.5 | 0.032 | ≤ 0.004 | 0.125 | 0.032 | 0.5 | 0.008 | 0.064 | 0.031 | 0.008 | 0.016 to 0.032 | 0.25 | 0.016 | 0.125 to 0.25 |  |  | 
Cc1c(-c2cc(N)cc(F)c2)ccn2c(=O)c(C(=O)O)cc(C3CC3)c12 [Example 9 K salt, 8-(3-amino-5-fluoro-phenyl)-1-cyclopropyl-9-methyl-4-oxo-4H-quinolizine-3-carboxylic acid] |  |  | 0.063 | 0.031 | 0.25 |  |  |  |  |  |  | 0.125 to 0.25 | 0.016 |  |  |  | 0.008 | 0.125 to 0.25 | 2 | 0.032 | MIC (A. baumannii ATCC 19606; [26]): 0.125 µg/mL; MIC (H. influenzae ATCC 49247; [21]): 0.008 µg/mL; MIC [3, 27]: 0.25 µg/mL; MIC (S. pneumonia ATCC 49619; [28]): 0.064 µg/mL; MIC (E. faecium ATCC 19434; [22]): 0.5 µg/mL; MIC [4, 23]: 0.008 µg/mL; MIC (S. aureus ATCC 25923; [24]): 0.008 µg/mL; MIC (E. coli ATCC 25922; [25]): 0.064 µg/mL; MIC [6, 23]: 0.25 µg/mL
Cc1c(-c2ccc(N)c(F)c2)ccn2c(=O)c(C(=O)O)cc(C3CC3)c12 [Example 2 K salt, 8-(4-amino-3-fluoro-phenyl)-1-cyclopropyl-9-methyl-4-oxo-4H-quinolizine-3-carboxylic acid] | 1 | 0.125 | 0.016 to 0.031 | 0.031 | 0.063 | 0.016 | ≤ 0.004 | 0.125 | 0.032 | 0.25 | 0.004 | 0.125 | 0.016 | ≤ 0.004 | 0.032 | 0.125 | 0.004 | 0.063 |  |  | 
Cc1c(-c2cc(F)c(N)cc2F)ccn2c(=O)c(C(=O)O)cc(C3CC3)c12 [Example 28 K salt, 8-(4-amino-2,5-difluoro-phenyl)-1-cyclopropyl-9-methyl-4-oxo-4H-quinolizine-3-carboxylic acid] | 2 | 0.125 | 0.031 to 0.063 | 0.016 to 0.031 | 0.125 | 0.016 | ≤ 0.004 | 0.125 | 0.032 | 0.25 | ≤ 0.004 | 0.25 to 0.5 | 0.008 | ≤ 0.004 | 0.032 to 0.064 | 0.064 | 0.004 | 0.125 to 0.25 |  |  | 
Cc1c(-c2ccc(O)cc2)ccn2c(=O)c(C(=O)O)cc(C3CC3)c12 [Example 46 K salt, 1-cyclopropyl-8-(4-hydroxy-phenyl)-9-methyl-4-oxo-4H-quinolizine-3-carboxylic acid] | 1 to 2 | 0.064 | 0.031 | 0.008 to 0.016 | 0.063 | 0.016 | ≤ 0.004 | 0.125 | 0.032 | 0.25 | ≤ 0.004 | 0.064 | 0.016 | ≤ 0.004 | 0.032 | 0.125 | 0.004 | 0.063 |  |  | 
Cc1c(-c2ccc(Cl)cc2)ccn2c(=O)c(C(=O)O)cc(C3CC3)c12 [Example 45 K salt, 1-cyclopropyl-8-(4-chloro-phenyl)-9-methyl-4-oxo-4H-quinolizine-3-carboxylic acid] |  |  | 0.031 | 0.031 | 0.063 to 0.125 |  |  |  |  |  |  |  | 0.008 to 0.016 |  |  |  | 0.016 | 0.063 to 0.125 | 2 | 0.064 | MIC (A. baumannii ATCC 19606; [26]): 0.25 µg/mL; MIC (H. influenzae ATCC 49247; [21]): 0.016 µg/mL; MIC [3, 27]: 0.25 µg/mL; MIC (S. pneumonia ATCC 49619; [28]): 0.25 µg/mL; MIC (E. faecium ATCC 19434; [22]): 0.5 to 1 µg/mL; MIC [4, 23]: 0.016 µg/mL; MIC (K. pneumoniae ATCC 33495; ATCC33495, Gram negative, MHB, 37° C., 16-20 hours, read-out: MIC K. pneumoniae ATCC 33495): 0.5 to 1 µg/mL; MIC (S. aureus ATCC 25923; [24]): 0.016 to 0.032 µg/mL; MIC (E. coli ATCC 25922; [25]): 0.25 µg/mL; MIC [6, 23]: 0.5 µg/mL
Cc1c(-c2ccc(CN)cc2)ccn2c(=O)c(C(=O)O)cc(C3CC3)c12 [Example 31 K salt, 8-(4-(aminomethyl)-phenyl)-1-cyclopropyl-9-methyl-4-oxo-4H-quinolizine-3-carboxylic acid] | 1 | 0.25 | 0.25 | 0.25 | 1 | 0.25 | 0.016 | 0.125 | 0.125 | 2 | 0.032 | 0.125 to 0.25 | 0.125 to 0.5 | 0.064 | 0.032 | 1 | 0.016 to 0.031 | 0.5 to 1 |  |  | 
